Results: ChEMBL document CHEMBL1201862, “PubChem BioAssay data set” (2004)
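Method: 48-hour compound exposure of cells in 96-well plates, five concentrations, linear interpolation of endpoints. GI50 = concentration required for 50% inhibition of growth.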 The source made the active and inactive calls. Rule as the data show it: active = GI50 up to about 1.1 µM and inactive = higher.

Columns and labels:
Assay in all cases: NCI-60 cell line screen, 48 h
HCT-116 = system: HCT-116
SN12C = system: SN12C
SF-295 = system: SF-295
MCF7 = system: MCF7
BT-549 = system: BT-549
HL-60 = system: HL-60
PC-3 = system: PC-3
UACC-62 = system: UACC-62
SK-MEL-5 = system: SK-MEL-5
HOP-62 = system: HOP-62
KM12 = system: KM12
DU-145 = system: DU-145
MDA-N = system: MDA-N
LOX IMVI = system: LOX IMVI
SNB-75 = system: SNB-75
A498 = system: A498
SK-MEL-2 = system: SK-MEL-2
SK-MEL-28 = system: SK-MEL-28
HOP-92 = system: HOP-92
UO-31 = system: UO-31

Row | Structure (SMILES) | GI50 (HCT-116) | GI50 (SN12C) | GI50 (SF-295) | GI50 (MCF7) | GI50 (BT-549) | GI50 (HL-60) | GI50 (PC-3) | GI50 (UACC-62) | GI50 (SK-MEL-5) | GI50 (HOP-62) | GI50 (KM12) | GI50 (DU-145) | GI50 (MDA-N) | GI50 (LOX IMVI) | GI50 (SNB-75) | GI50 (A498) | GI50 (SK-MEL-2) | GI50 (SK-MEL-28) | GI50 (HOP-92) | GI50 (UO-31)
1 | COc1ccc(OC)c(-c2cc(C(=O)O)c3cc4ccccc4cc3n2)c1 | > 100 µM (inactive) | > 100 µM (inactive) | > 100 µM (inactive) | > 100 µM (inactive) | > 100 µM (inactive) | > 100 µM (inactive) | > 100 µM (inactive) | > 100 µM (inactive) | > 100 µM (inactive) | > 100 µM (inactive) | > 100 µM (inactive) | > 100 µM (inactive) | > 100 µM (inactive) | > 100 µM (inactive) | > 100 µM (inactive) | > 100 µM (inactive) | > 100 µM (inactive) | > 100 µM (inactive) | > 100 µM (inactive) | –
2 | CCSc1n/c(=C\c2ccc(N(C)C)cc2)c2nnnn12 | > 100 µM (inactive) | > 100 µM (inactive) | 99.3 µM (inactive) | > 100 µM (inactive) | > 100 µM (inactive) | > 100 µM (inactive) | > 100 µM (inactive) | > 100 µM (inactive) | > 100 µM (inactive) | > 100 µM (inactive) | > 100 µM (inactive) | > 100 µM (inactive) | > 100 µM (inactive) | – | > 100 µM (inactive) | > 100 µM (inactive) | > 100 µM (inactive) | > 100 µM (inactive) | > 100 µM (inactive) | –
3 | O=C1CC(c2ccc(Cl)cc2)C2(C(=O)NC(=O)NC2=O)C(c2ccc(Cl)cc2)C1 (stereo not drawn) | 31.6 µM (inactive) | 21.6 µM (inactive) | 28.8 µM (inactive) | 22.3 µM (inactive) | 30.7 µM (inactive) | 19.5 µM (inactive) | 30.5 µM (inactive) | 40.5 µM (inactive) | 14.5 µM (inactive) | 22.9 µM (inactive) | 36.4 µM (inactive) | 21.7 µM (inactive) | 19.8 µM (inactive) | 31.4 µM (inactive) | 49.5 µM (inactive) | – | 15.6 µM (inactive) | 18.2 µM (inactive) | 14.7 µM (inactive) | 25.6 µM (inactive)
4 | C[C@]12O[C@@]3(C)O[C@@]3(C)[C@]3(C)O[C@]3(C)[C@@]1(C)O2 | > 100 µM (inactive) | > 100 µM (inactive) | > 100 µM (inactive) | > 100 µM (inactive) | > 100 µM (inactive) | – | > 100 µM (inactive) | > 100 µM (inactive) | > 100 µM (inactive) | > 100 µM (inactive) | > 100 µM (inactive) | > 100 µM (inactive) | > 100 µM (inactive) | > 100 µM (inactive) | 0.598 µM (active) | > 100 µM (inactive) | > 100 µM (inactive) | > 100 µM (inactive) | > 100 µM (inactive) | > 100 µM (inactive)
5 | COc1cc(OC)c(OC)cc1/C=C/c1ccc2ccccc2n1 | 3.72 µM (inactive) | > 10 µM (inactive) | 9.71 µM (inactive) | 9.57 µM (inactive) | 8.89 µM (inactive) | 3.27 µM (inactive) | 6.08 µM (inactive) | 6.44 µM (inactive) | 8.77 µM (inactive) | > 10 µM (inactive) | 7.85 µM (inactive) | > 10 µM (inactive) | 8.07 µM (inactive) | > 10 µM (inactive) | 9.71 µM (inactive) | – | – | > 10 µM (inactive) | 5.57 µM (inactive) | –
6 | O=CC12C3CCC1C2C(=O)C3 (stereo not drawn) | > 100 µM (inactive) | > 100 µM (inactive) | > 100 µM (inactive) | > 100 µM (inactive) | > 100 µM (inactive) | – | > 100 µM (inactive) | > 100 µM (inactive) | > 100 µM (inactive) | > 100 µM (inactive) | > 100 µM (inactive) | > 100 µM (inactive) | > 100 µM (inactive) | > 100 µM (inactive) | > 100 µM (inactive) | – | > 100 µM (inactive) | > 100 µM (inactive) | > 100 µM (inactive) | –
7 | CC[C@@]1(OC(=O)CN(C)C)C(=O)OCc2c1cc1n(c2=O)Cc2cc3ccccc3nc2-1 | 0.0481 µM (active) | < 0.0191 µM (active) | 0.01 µM (active) | 0.00853 µM (active) | 0.0536 µM (active) | 0.0105 µM (active) | 0.0973 µM (active) | 0.00569 µM (active) | 0.0328 µM (active) | 0.0234 µM (active) | 0.223 µM (active) | 0.013 µM (active) | 0.173 µM (active) | 0.0198 µM (active) | 0.0647 µM (active) | 0.205 µM (active) | 0.701 µM (active) | 0.308 µM (active) | 0.119 µM (active) | 0.0296 µM (active)
8 | O=C1CN(c2ccccc2)Cc2nc(Cl)ccc2N1 | > 100 µM (inactive) | > 100 µM (inactive) | > 100 µM (inactive) | > 100 µM (inactive) | > 100 µM (inactive) | > 100 µM (inactive) | 79.4 µM (inactive) | 95.5 µM (inactive) | > 100 µM (inactive) | > 100 µM (inactive) | > 100 µM (inactive) | > 100 µM (inactive) | > 100 µM (inactive) | > 100 µM (inactive) | 40.4 µM (inactive) | – | > 100 µM (inactive) | > 100 µM (inactive) | 57.4 µM (inactive) | > 100 µM (inactive)
